{"source": "patent US20110009268A1", "about": "“IPBC-CONTAINING COACERVATES” (priority 2006, published 2011)", "tested_on": "mold fungi", "experiment": "Coatings test: mold resistance of emulsion paint (formula A)", "description": "The substance under test was incorporated into the test paint, at the stated concentration, using a dissolver.\nThe procedure for testing the emulsion paints for mold resistance was as follows:\nThe coating material under test was applied to both sides of a suitable substrate. In order to obtain realistic results, one portion of the test specimens was leached with running water (24 h, 20° C.) prior to the test for mold resistance; a further portion was treated with a warm stream of fresh air (7 days, 40° C.).\nThe samples thus prepared were then placed on an agar nutrient medium, and both samples and nutrient medium were contaminated with fungal spores. Inspection took place after 2-3 weeks' storage (29±1° C., 80-90% relative humidity).\nContamination was carried out using spores of the following mold fungi which are known to destroy coating materials or which are frequently encountered on coatings:\nAlternaria tennis Aspergillus flavus Aspergillus niger Aspergillus ustus Cindosporum herbarum Paecilomyces variotii Penicillum citrium Aureobasidium pullulans Stachybotrys chartarum", "data": [{"compound": "CCCCNC(=O)OCC#CI", "note": "[pure IPBC, 3-iodo-2-propynyl butylcarbamate]", "values": [{"measurement": "mold resistance of coating", "setting": "0.08% based on solids content of the emulsion paint, without leaching and wind tunnel exposure", "result": "mold-resistant"}, {"measurement": "activity of coating against mold", "setting": "0.16% based on solids content of the emulsion paint, after leaching and wind tunnel exposure", "result": "active"}]}]}
